In ChEMBL document CHEMBL4011631, “Trisubstituted Pyridinylimidazoles as Potent Inhibitors of the Clinically Resistant L858R/T790M/C797S EGFR Mutant: Targeting of Both Hydrophobic Regions and the Phosphate Binding Site” (J Med Chem, 2017):
Calls of active or inactive are those of the source. The rule behind the calls is not given here.

Assays:
[1] = system: A-431; experiment: cells; assay type: ADME, cell-based; settings: Homo sapiens, A-431, 96 h
Description: Antiproliferative activity against human A431 cells harboring wild type EGFR assessed as growth inhibition after 96 hrs by CellTiter-Glo assay

[2] = system: NCI-H1975; experiment: cells; assay type: functional, cell-based; settings: Homo sapiens, NCI-H1975, 96 h
[3] = target: T1, Epidermal growth factor receptor (Homo sapiens, UniProt P00533, L858R)
[4] = target: T2, Epidermal growth factor receptor (Homo sapiens, UniProt P00533, L858R/T790M)
[5] = target: T3, Epidermal growth factor receptor (Homo sapiens, UniProt P00533); assay type: ADME
Description: Inhibition of human N-terminal GST-fused EGFR cytoplasmic domain (669 to 1210 residues) expressed in baculovirus using TK-substrate-biotin preincubated for 30 mins followed by substrate addition measured after 25 mins by HTFR assay

[6] = target: T1, Epidermal growth factor receptor; remark: listed apart in the source
[7] = target: T3, Epidermal growth factor receptor; settings: for kinact: human
Description: Inhibition of human N-terminal GST-fused EGFR cytoplasmic domain (669 to 1210 residues) expressed in baculovirus using TK-substrate-biotin incubated for 2 to 90 mins by HTFR assay

[8] = target: T2, Epidermal growth factor receptor; remark: listed apart in the source
[9] = target: T3, Epidermal growth factor receptor; settings: read-out: Ratio
Description: Ratio of Kinact for human N-terminal GST-fused EGFR cytoplasmic domain (669 to 1210 residues) expressed in baculovirus to Ki for human N-terminal GST-fused EGFR cytoplasmic domain (669 to 1210 residues) expressed in baculovirus

[10] = system: Epidermal growth factor receptor (Homo sapiens), P00533 [T790M]; experiment: Covalent binding affinity to EGFR T790M mutant (unknown origin) at 100 uM after 1 hr by mass spectrometric analysis
[11] = Drug degradation in human liver microsomes at 100 uM preincubated for 5 mins with NADPH-regenerating system followed by liver microsomes addition measured after 240 mins by LC-MS analysis; assay type: ADME, microsome; settings: read-out: Drug degradation
[12] = target: Epidermal growth factor receptor (Homo sapiens, UniProt P00533, C797S/L858R/T790M); experiment: Inhibition of human EGFR T790M/C797S/L858R triple mutant preincubated for 20 mins followed by [33P]ATP addition measured after 2 hrs

| SMILES | EC50 [1] [nM] | EC50 [2] [nM] | IC50 [3] [nM] | IC50 [4] [nM] | IC50 [5] [nM] | Ki [6] [nM] | Ki [7] [nM] | kinact [7] [s⁻¹] | Ki [8] [nM] | kinact/KI [9] [M⁻¹ s⁻¹] | Activity [10] | metabolised at 4 h, 100 µM [11] [%] | IC50 [12] [nM] |
| --- | --- | --- | --- | --- | --- | --- | --- | --- | --- | --- | --- | --- | --- |
| CN(C)C(=O)CSc1nc(-c2ccc(F)cc2)c(-c2ccnc(Nc3ccccc3)c2)[nH]1 | 18000 | 16000 |  |  |  |  |  |  |  |  |  |  |  |
| CCC(=O)Nc1ccc(OC)c(Nc2cc(-c3cnc(SC)[nH]3)ccn2)c1 | 13000 | > 30000 | 360 | 3510 | 1770 |  |  |  |  |  |  |  |  |
| C=CC(=O)Nc1cccc(Nc2cc(-c3[nH]c(SCCNC(=O)CC)nc3-c3ccccc3)ccn2)c1 | 1500 | 2800 | < 1 | 2.5 | < 1 |  |  |  |  |  |  |  |  |
| C=CC(=O)Nc1cccc(Oc2nc(Nc3ccc(N4CCN(C)CC4)cc3OC)ncc2Cl)c1 | 2200 | 100 |  |  |  |  |  |  |  |  |  |  |  |
| C=CC(=O)NCCSc1nc(-c2ccc(F)cc2)c(-c2ccnc(Nc3ccccc3)c2)[nH]1 | 12000 | 2400 | 2.2 | 38 | 1.6 | 0.38 | 1.6 | 0.0015 | 6 | 940000 |  |  |  |
| NCCCSc1nc(-c2ccc(F)cc2)c(-c2ccnc(Nc3ccccc3)c2)[nH]1 | 7400 | 8400 | 12 | 240 | 55 |  |  |  |  |  |  |  |  |
| C=CC(=O)Nc1ccc(OC)c(Nc2cc(-c3[nH]c(SC)nc3-c3cccs3)ccn2)c1 | 7400 | 84 | < 1 | < 1 | < 1 |  |  |  |  |  |  |  |  |
| C=CC(=O)N1CCC[C@@H]1CSc1nc(-c2ccc(F)cc2)c(-c2ccnc(Nc3ccccc3)c2)[nH]1 | 6900 | 3400 |  |  |  |  |  |  |  |  |  |  |  |
| C=CC(=O)NCCCSc1nc(-c2ccc(F)cc2)c(-c2ccnc(Nc3ccccc3)c2)[nH]1 | 1400 | 1300 | 22 | 321 | 16 |  |  |  |  |  |  |  |  |
| C=CC(=O)NCc1cn(Cc2cccc(Nc3cc(-c4[nH]c(SC)nc4-c4ccc(F)cc4)ccn3)c2)nn1 | 24000 | 23000 | 46 | 597 | 164 |  |  |  |  |  |  |  |  |
| OCCSc1nc(-c2ccc(F)cc2)c(-c2ccnc(Nc3ccccc3)c2)[nH]1 | 11000 | 16000 | 1.1 | 83 | 11 |  |  |  |  |  |  |  |  |
| C=CC(=O)Nc1cccc(Nc2cc(-c3[nH]c(SC)nc3-c3ccc(F)cc3)ccn2)n1 | 1700 | 1500 | < 1 | 3.1 | < 1 |  |  |  |  |  |  |  |  |
| C=CC(=O)Nc1ccc(OC)c(Nc2cc(-c3[nH]c(SC)nc3-c3ccc(F)cc3)ccn2)c1 | 4100 | < 14 |  |  |  |  |  |  |  |  | Active | 23 |  |
| C=CC(=O)N1CCC(Sc2nc(-c3ccc(F)cc3)c(-c3ccnc(Nc4ccccc4)c3)[nH]2)C1 (centres undefined) | 17000 | 14000 | 25 | 417 | 217 |  |  |  |  |  |  |  |  |
| C=CC(=O)Nc1ccc(OC)c(Nc2cc(-c3[nH]c(SC)nc3C3CCCC3)ccn2)c1 | 7800 | 1400 | < 1 | 4.5 | < 1 |  |  |  |  |  |  |  |  |
| C=CC(=O)NCc1cccc(Nc2cc(-c3[nH]c(SC)nc3-c3ccc(F)cc3)ccn2)c1 | 14000 | 3400 | 4.9 | 89 | 16 |  |  |  |  |  |  |  |  |
| Fc1ccc(-c2nc(SCCN3CCOCC3)[nH]c2-c2ccnc(Nc3ccccc3)c2)cc1 | 10000 | 15000 | 75 | 1250 | 183 |  |  |  |  |  |  |  |  |
| C=CC(=O)NCCSc1nc(-c2ccc(F)c(C(F)(F)F)c2)c(-c2ccnc(Nc3ccccc3)c2)[nH]1 | 11000 | 3100 | 144 | 646 | 45 |  |  |  |  |  |  |  |  |
| C=CC(=O)Nc1ccc(OC)c(Nc2cc(-c3[nH]c(SC)nc3C3CCC3)ccn2)c1 | 8900 | 2000 | < 1 | 6.8 | < 1 |  |  |  |  |  |  |  |  |
| CN(C)C/C=C/C(=O)NCCSc1nc(-c2ccc(F)cc2)c(-c2ccnc(Nc3ccccc3)c2)[nH]1 | 6600 | > 5000 | 1.9 | 18 | 2.7 |  |  |  |  |  |  |  |  |

| SMILES | EC50 [1] [nM] | EC50 [2] [nM] | IC50 [3] [nM] | IC50 [4] [nM] | IC50 [5] [nM] | Ki [6] [nM] | Ki [7] [nM] | kinact [7] [s⁻¹] | Ki [8] [nM] | kinact/KI [9] [M⁻¹ s⁻¹] | Activity [10] | metabolised at 4 h, 100 µM [11] [%] | IC50 [12] [nM] |
| --- | --- | --- | --- | --- | --- | --- | --- | --- | --- | --- | --- | --- | --- |
| C=CC(=O)Nc1ccc(OC)c(Nc2cc(-c3[nH]c(SC)nc3-c3ccc4ccccc4c3)ccn2)c1 | 3000 | 380 | < 1 | 1.1 | < 1 |  |  |  |  |  |  |  |  |
| CC(=O)CCCSc1nc(-c2ccc(F)cc2)c(-c2ccnc(Nc3ccccc3)c2)[nH]1 | 12000 | 14000 | 76 | 1330 | 185 |  |  |  |  |  |  |  |  |
| C=CC(=O)Nc1cc(Nc2cc(-c3[nH]c(SC)nc3-c3ccc(F)cc3)ccn2)cc(N2CCOCC2)c1 | 1500 | 1300 | < 1 | < 1 | < 1 |  |  |  |  |  |  |  | 53 |
| C=CC(=O)Nc1ccc(OC)c(Nc2cc(-c3[nH]c(CCCO)nc3-c3ccc(F)cc3)ccn2)c1 | 4000 | 400 | < 1 | < 1 | < 1 | 0.03 | 0.07 | 0.00267 | 0.1 | 1.5e+07 |  | 9 | 8 |
| N#CCCSc1nc(-c2ccc(F)cc2)c(-c2ccnc(Nc3ccccc3)c2)[nH]1 | 17000 | 16000 | 40 | 746 | 109 |  |  |  |  |  |  |  |  |
| C=CC(=O)Nc1ccc(OC)c(Nc2cc(-c3[nH]c(SC)nc3C3CC3)ccn2)c1 | 8000 | 2300 | < 1 | 7.4 | 2.3 |  |  |  |  |  |  |  |  |
| CCC(=O)Nc1cccc(Nc2cc(-c3[nH]c(SC)nc3-c3ccc(F)cc3)ccn2)c1 | 1500 | 2200 | 6.8 | 93 | 22 |  |  |  |  |  | inactive |  | 223 |
| CSc1nc(-c2ccc(F)cc2)c(-c2ccnc(Nc3cc(F)cc([N+](=O)[O-])c3)c2)[nH]1 | 19000 | 30000 | 55 | 586 | 265 |  |  |  |  |  |  |  |  |
| C=CC(=O)NCCSc1nc(-c2ccccc2)c(-c2ccnc(Nc3ccccc3)c2)[nH]1 | 11000 | 3200 | 1.7 | 29 | 12 |  |  |  |  |  |  |  |  |
| CSc1nc(-c2ccc(F)cc2)c(-c2ccnc(Nc3cc(N4CCN(C)CC4)cc([N+](=O)[O-])c3)c2)[nH]1 | 7800 | 13000 | < 1 | 12 | 2.1 |  |  |  |  |  |  |  |  |
| C=CC(=O)Nc1cc(Nc2cc(-c3[nH]c(SC)nc3-c3ccc(F)cc3)ccn2)cc(N2CCN(C)CC2)c1 | 1400 | 1100 | < 1 | < 1 | < 1 |  |  |  |  |  |  | 27 | 11 |
| NCCSc1nc(-c2ccc(F)cc2)c(-c2ccnc(Nc3ccccc3)c2)[nH]1 | 11000 | 7200 | 2.6 | 29 | 4.8 |  |  |  |  |  |  |  |  |
| C=CC(=O)Nc1ccc(OC)c(Nc2cc(-c3[nH]c(SC)nc3C)ccn2)c1 | 9700 | 4100 | 10 | 33 | 32 |  |  |  |  |  |  |  |  |
| C=CC(=O)N1CCC[C@H]1CSc1nc(-c2ccc(F)cc2)c(-c2ccnc(Nc3ccccc3)c2)[nH]1 | 8800 | 4700 |  |  |  |  |  |  |  |  |  |  |  |
| CCC(=O)NCCSc1nc(-c2ccc(F)cc2)c(-c2ccnc(Nc3ccccc3)c2)[nH]1 | 16000 | 9700 | 3.2 | 52 | 33 |  |  |  |  |  |  |  |  |
| CSc1nc(-c2ccc(F)cc2)c(-c2ccnc(Nc3ccccc3)c2)[nH]1 | 11000 | 22000 | 2.5 | 130 | 24 |  |  |  |  |  |  |  |  |
| C=CC(=O)Nc1ccc(OC)c(Nc2cc(-c3cnc(SC)[nH]3)ccn2)c1 | 4100 | 2000 | 5.6 | 8.6 | 17 |  |  |  |  |  |  |  |  |
| C=CC(=O)Nc1ccc(OC)c(Nc2cc(-c3[nH]c(SC)nc3C(C)(C)C)ccn2)c1 | 20000 | 18000 | 16 | 485 | 57 |  |  |  |  |  |  |  |  |
| CCC(=O)Nc1ccc(OC)c(Nc2cc(-c3[nH]c(SC)nc3-c3ccc(F)cc3)ccn2)c1 | 7700 | 4300 | < 1 | 5 | < 1 |  |  |  |  |  |  |  | 167 |
| CCC(=O)Nc1ccc(OC)c(Nc2cc(-c3[nH]c(CCCO)nc3-c3ccc(F)cc3)ccn2)c1 | 17000 | 7200 | < 1 | < 1 | < 1 |  |  |  |  |  |  |  | 7 |
| C=CC(=O)Nc1cccc(Nc2cc(-c3[nH]c(SC)nc3-c3ccc(F)cc3)ccn2)c1 | 1700 | 190 | < 1 | 3.3 | < 1 |  |  |  |  |  | Active |  |  |
